Results from patent US6552214B1, “Antimicrobial compound” (General Electric Company, priority 2000, dated 2003).

Assays:
[1] = Dioxin (2,8 DCDD) formation during GC-MS analysis; format: physicochemical; settings: injection of a 1000 ppm solution at 270° C. (518° F.)
Experimental: Dioxin formation was compared between modified and unmodified IRGASAN® bacteriostat samples. It was determined that 2,8 DCDD was produced during analysis of unmodified IRGASAN® bacteriostat by gas-chromatography-mass spectroscopy (GC-MS), presumably during injection of the material at 270° C. (518° F.).
The structure of IRGASAN® bacteriostat was modified by derivatization with BSTFA. A 0.1 ml volume of BSTFA (Supelco inc.) was added to 1.0 ml of a 1000 ppm IRGASAN® solution. Dioxin levels were undetectable upon analysis of the modified IRGASAN® solution by GC-MS.

E. coli = test: Kirby-Bauer type assay, zone of inhibition; format: cell-based; settings: 24 h incubation
Experimental: (§1) Antimicrobial activity of the modified IRGASAN® bacteriostat was compared to that of the unmodified material in a Kirby-Bauer type assay. Three solutions of IRGASAN® bacteriostat and three solutions of modified IRGASAN® bacteriostat (3, 30 and 3000 ppm) were prepared and soaked into Whatman filter paper disks ˜6 mm in diameter and allowed to dry. The disks were placed onto the surface of nutrient agar plates that had been inoculated with 1×10^6 cells of either E. coli or Pseudomonas aeruginosa. The ability of the compounds to inhibit bacterial growth was determined by measuring the diameter of the zone of inhibition surrounding the filter paper disks after 24 h of incubation. The results (TABLE 1) indicate that there is no difference in activity between the modified and unmodified IRGASAN® bacteriostat compound.

Pseudomonas aeruginosa = test: Kirby-Bauer type assay, zone of inhibition; format: cell-based; settings: P. aeruginosa, 24 h incubation
Experimental: as §1

[2] = background statement; cited from earlier work
[3] = 3 ppm solution soaked into filter paper disk
[4] = 30 ppm solution soaked into filter paper disk
[5] = 3000 ppm solution soaked into filter paper disk

| Compound | production of DCDD (dioxin level) [1] | zone of inhibition at 3 ppm (E. coli; Escherichia coli, 3 ppm solution soaked into filter paper disk) [mm] | zone of inhibition at 30 ppm (E. coli; Escherichia coli, 30 ppm solution soaked into filter paper disk) [mm] | zone of inhibition at 3000 ppm (E. coli; Escherichia coli, 3000 ppm solution soaked into filter paper disk) [mm] | zone of inhibition at 3 ppm (Pseudomonas aeruginosa; Pseudomonas aeruginosa, 3 ppm solution soaked into filter paper disk) [mm] | zone of inhibition at 30 ppm (Pseudomonas aeruginosa; Pseudomonas aeruginosa, 30 ppm solution soaked into filter paper disk) [mm] | zone of inhibition at 3000 ppm (Pseudomonas aeruginosa; Pseudomonas aeruginosa, 3000 ppm solution soaked into filter paper disk) [mm] | temperature above which the ether converts to chlorinated dioxin (DCDD) [2] | Zone of Inhibition (E. coli; [3]) [mm] | Zone of Inhibition (E. coli; [4]) [mm] | Zone of Inhibition (E. coli; [5]) [mm] | Zone of Inhibition (Pseudomonas aeruginosa; [3]) [mm] | Zone of Inhibition (Pseudomonas aeruginosa; [4]) [mm] | Zone of Inhibition (Pseudomonas aeruginosa; [5]) [mm] |
| --- | --- | --- | --- | --- | --- | --- | --- | --- | --- | --- | --- | --- | --- | --- |
| C[Si](C)(C)Oc1cc(Cl)ccc1Oc1ccc(Cl)cc1Cl [Modified, 2,4,4′-trichloro-2′-trimethylsilyloxy diphenyl ether] | undetectable | 1 | 4 | 12 | 0 | 0 | 0 |  |  |  |  |  |  |  |
| Oc1cc(Cl)ccc1Oc1ccc(Cl)cc1Cl [Unmodified, 2,4,4′-dichloro-2′-hydroxydiphenyl ether] | approximately 46 ppm |  |  |  |  |  |  | above 200 °C | 1 | 4 | 12 | 0 | 0 | 0 |
